Experimental data reported in paper PMC10669046, “Probing the Proton-Gated ASIC Channels Using Tetraalkylammonium Ions” (Biomolecules, 2023).
Values belong to the compound of their own block, whether it stands above or below them.

Tests used:
[1] = target: T1, ASIC1a (Rattus norvegicus, UniProt P55926); experiment: whole-cell patch clamp in transfected CHO cells; […], pH […], Idrug/Icontrol = […]; assay type: cell-based; conditions: pH 6.5, read-out: whole-cell patch clamp in transfected CHO cells, 5 mM, pH 6.5, Idrug/Icontrol =
T1 construct: gene Asic1
T1 sequence (P55926 1-526): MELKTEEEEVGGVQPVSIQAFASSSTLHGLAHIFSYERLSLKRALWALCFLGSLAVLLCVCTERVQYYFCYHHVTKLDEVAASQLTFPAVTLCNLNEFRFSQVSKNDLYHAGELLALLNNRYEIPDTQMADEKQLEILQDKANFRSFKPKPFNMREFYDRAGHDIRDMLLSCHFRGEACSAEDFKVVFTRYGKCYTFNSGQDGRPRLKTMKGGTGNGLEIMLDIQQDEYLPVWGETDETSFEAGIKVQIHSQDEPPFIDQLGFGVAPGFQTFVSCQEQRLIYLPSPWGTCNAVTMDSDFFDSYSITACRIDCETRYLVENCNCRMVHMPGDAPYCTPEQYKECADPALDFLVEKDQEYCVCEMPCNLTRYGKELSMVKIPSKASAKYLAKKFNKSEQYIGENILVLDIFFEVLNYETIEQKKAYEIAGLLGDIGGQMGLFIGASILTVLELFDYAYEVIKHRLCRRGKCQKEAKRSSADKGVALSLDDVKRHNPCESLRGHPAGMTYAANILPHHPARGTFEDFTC

[2] = target: T2, ASIC2a (Rattus norvegicus, UniProt Q62962); experiment: whole-cell patch clamp in transfected CHO cells; […], pH […], peak Idrug/Icontrol = […]; assay type: cell-based; conditions: pH 5, read-out: whole-cell patch clamp in transfected CHO cells, 5 mM, pH 5.0, peak Idrug/Icontr
T2 construct: gene Asic2
T2 sequence (Q62962 1-512): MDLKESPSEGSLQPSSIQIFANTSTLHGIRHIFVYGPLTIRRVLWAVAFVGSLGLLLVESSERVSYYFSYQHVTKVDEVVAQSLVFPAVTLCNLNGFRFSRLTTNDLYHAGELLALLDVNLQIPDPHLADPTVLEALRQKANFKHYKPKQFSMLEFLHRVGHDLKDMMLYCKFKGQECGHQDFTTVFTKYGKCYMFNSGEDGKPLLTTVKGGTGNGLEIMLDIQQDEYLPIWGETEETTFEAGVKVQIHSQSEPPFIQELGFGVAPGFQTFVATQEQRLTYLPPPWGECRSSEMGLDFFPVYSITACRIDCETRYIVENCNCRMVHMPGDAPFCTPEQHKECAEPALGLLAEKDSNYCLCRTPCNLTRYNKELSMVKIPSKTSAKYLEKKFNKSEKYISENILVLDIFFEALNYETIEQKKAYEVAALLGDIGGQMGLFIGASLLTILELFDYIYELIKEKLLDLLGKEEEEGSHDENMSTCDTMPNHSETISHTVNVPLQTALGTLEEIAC

[3] = target: T3, ASIC3 (Rattus norvegicus, UniProt O35240); experiment: cell-based; conditions: CHO, read-out: whole-cell patch clamp in transfected CHO cells; potentiation of the sustained c
T3 sequence (O35240 1-533): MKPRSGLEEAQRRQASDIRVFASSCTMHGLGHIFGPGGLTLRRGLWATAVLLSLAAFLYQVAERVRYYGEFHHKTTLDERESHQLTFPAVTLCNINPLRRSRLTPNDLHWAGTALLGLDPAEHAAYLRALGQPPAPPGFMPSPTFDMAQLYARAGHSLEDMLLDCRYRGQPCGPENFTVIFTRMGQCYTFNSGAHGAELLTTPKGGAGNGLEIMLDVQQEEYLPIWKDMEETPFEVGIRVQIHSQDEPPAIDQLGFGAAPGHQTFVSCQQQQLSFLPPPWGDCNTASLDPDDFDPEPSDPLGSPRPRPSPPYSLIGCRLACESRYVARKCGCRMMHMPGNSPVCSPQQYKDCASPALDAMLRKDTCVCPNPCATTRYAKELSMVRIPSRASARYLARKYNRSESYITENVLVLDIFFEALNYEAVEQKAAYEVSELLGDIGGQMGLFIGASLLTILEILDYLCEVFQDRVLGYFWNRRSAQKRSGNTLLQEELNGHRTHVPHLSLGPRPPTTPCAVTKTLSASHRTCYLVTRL

[4] = target: T1, ASIC1a; experiment: cell-based; conditions: CHO, read-out: whole-cell patch clamp in transfected CHO cells; 10 mM, voltage-dependent inhibi

SMILES: CCCCC[N+](CCCCC)(CCCCC)CCCCC [TPtA, tetrapentylammonium]
remaining activity at 5000 µM [1]: 41 ± 6% | activity at 5000 µM [2]: 71 ± 18%

activity at 1000 µM [3]: 112 ± 8%
SMILES: CCCC[N+](CCCC)(CCCC)CCCC [TBA, tetrabutylammonium]

SMILES: CC[N+](CC)(CC)CC [TEA, tetraethylammonium]
activity at 10000 µM [4]: 70 ± 13%
